Assay [1] has as its target X1s1 RNA (SEQ ID NO: 3), synthetically derived from the predicted structures. Nature of the assay: Fluorescence binding measurements, X1s1 RNA. As to conditions: K1 - high affinity; footnote b: ligand is 6'N4-pyreneacetyl tobramycin; read-out: Dissociation Constants K1(PYT). As to the method:
(§1) The binding of tobramycin to two cloned RNAs X1 (SEQ ID NO:2) and J6 (SEQ ID NO:5), representative of both classes of consensus sequences, was measured using the fluorescence techniques described in the exemplification.
(§2) *synthetically derived from the predicted structures
(§3) Steady state fluorescence measurements were performed on a double beam fluorescence spectrometer (Perkin-Elmer Model 512, Norwalk, Conn.). The excitation wavelength was 341 nm. All measurements were done at 20° C. in 140 mM NaCl, 5 mM KCl, 1 mM CaCl2, 1 mM MgCl2, and 20 mM HEPES, pH 7.4. The KD of the PYT and the RNA aptamer was calculated by the curve fitting of the fluorescence intensity as a function of RNA concentration, using the following equation
(§4) Competition binding measurements of antibiotics with RNA and PYT were performed at constant concentrations of PYT and RNA by monitoring fluorescence intensity changes as a function of changing concentrations of the antibiotics (a standard fluorescence curve). The KD s for the antibiotics were calculated by the curve fitting of the fluorescence intensity of PYT as a function of antibiotic concentration, using the following equation: […]

In assay [2] the test system is W13 RNA having SEQ ID NO:1. Put plainly: Fluorescence (PYT quenching) titration and competition binding to W13 RNA. As to conditions: for competition with PYT binding (in words): fluorescence competition assay. As to the method: To study the binding behavior of clone W13, a fluorescently labelled pyrene-conjugated tobramycin derivative "PYT" was prepared.
For competitive binding studies, different concentrations of antibiotic (glucosamine (0-10 mM), erythromycin (0-6 mM), gentamicin C (0-700 μM), or neomycin B (0-650 μM)), were mixed with constant concentrations of RNA (300 nM W13) and PYT (150 nM), in Binding buffer (140 mM NaCl, 5 mM KCl, 1 mM MgCl2, 1 mM CaCl2, 20 mM HEPES, pH 7.4), 750 μl total volume, for 1-5 min. at 20° C. in a semimicro-cell cuvette. The fluorescence was measured on a Perkin-Elmer Model 512 double beam fluorescence spectrophotometer. The excitation wavelength used was 341 nm. The intensities of fluorescence emission at 380 nm were used to calculate dissociation constants. Generally 8 to 10 points were used for calculation.
as §3
(assuming a 1:1 complex): I=Io +0.5Δε ([PYT]o
-(([PYT]o +[RNA]o KI)^2 -4[PYT]o [RNA]o)^0.5)
Competition binding measurements of antibiotics with RNA and PYT were performed at constant concentrations of PYT and RNA by monitoring fluorescence intensity changes as a function of changing concentrations of the antibiotics (a standard fluorescence curve). The KD s for the antibiotics were calculated by the curve fitting of the fluorescence intensity of PYT as a function of antibiotic concentration, using the following equation:
I=Io +Δε[PYT.circle-solid.RNA]
[PYT.circle-solid.RNA]=0.5(([PYT]o +[RNA]o)([RNA]o
+KD)+KI ([T]o +[RNA]o +KD)-((([PYT]o
+[RNA]o)([RNA]o +KD)+KI ([T]o +[RNA]o
+KD))^2 -4([RNA]o +KD) [PYT]o [RNA]o
([RNA]o +KD))^0.5)([RNA]o +KD) (equation 2)
KD and KI are the dissociation constants for the antibiotic and PYT respectively.
[T]o is the total concentration of antibiotic added. Measurements were taken at least twice for each measured KD.

Assay [3] has as its system RNA pool transcribed from DNA after the sixth selection, bound to tobramycin affinity column. Nature of the assay: Elution of bound RNA from tobramycin affinity column. As to conditions: 10 column volumes of selection buffer containing 50 mM D-glucosamine. Format: binding. From the text: Elution patterns of the RNA from the columns are shown in FIG. 4 for the second and sixth selections. Over 6 cycles of selection, the percentages of RNA specifically eluted with tobramycin were <0.1%, 3.0%, 2.9%, 26%, 55%, and 82%. […] The RNA pool transcribed from DNA after the sixth selection could not be eluted from the affinity column, even after 100 column volumes of selection buffer.
An N-hydroxysuccinimide Affi-Gel affinity column (Bio-Rad, Hercules, Calif.) was derivatized with either 20 μmoles or 0.075 μmoles tobramycin per ml of gel to generate the affinity columns. Excess N-hydroxysuccinimide linkages were blocked by adding 1M ethanolamine. The resulting column served as the support for the RNA selections. The tobramycin concentration on column was estimated as about 15 mM. Selections were performed in 1 ml column volumes in a buffer (selection buffer) containing 140 mM NaCl, 5 mM KCl, 1 mM CaCl2, 1 mM MgCl2, and 20 mM Tris acetate, pH 7.4 (Bock et al. (1992) Nature 355: 564-566). A 1 ml Affi-Gel 10 pre-column treated with ethanolamine was used in all selections.
The original double stranded DNA pool was constructed by large scale PCR amplification of the synthesized 109mer random DNA pool (Oligos, Etc., Inc., Wilsonville, Oreg.) containing 60 random nucleotides. […]

Assay [4] deals with random selected RNA pool (low stringency tobramycin column). Put plainly: Fluorescence assay, average binding of the random selected RNA pool. The note with it: overall selected pool mixture. As to the method:
To determine whether the W13 RNA clone is representative of the average binding capacity of the random selected RNA pool, the average KD values for the random selected pool were measured. […] Therefore, the W13 RNA is representative of the average binding capacity of the random selected pool.
as §3, §4

Assay [5] has as its target J6 RNA (SEQ ID NO:5). Nature of the assay: Fluorescence binding measurements, J6 RNA. As to conditions: K1 - high affinity; fluorescent ligand per footnote a/b; read-out: Dissociation Constants K1(PYT). As to the method: as §1, §3, §4
Assay [6] concerns the target J6a1 RNA (SEQ ID NO: 5), synthetically derived from the predicted structures. Nature of the assay: Fluorescence binding measurements, J6a1 RNA. The note with it: K1 - high affinity; fluorescent ligand per footnote a/b; read-out: Dissociation Constants K1(PYT). As to the method: as §1, §2, §3, §4
Assay [7] concerns the target clone W13 RNA (SEQ ID NO:1), tobramycin-selected RNA aptamer. Put plainly: Equilibrium dialysis binding to clone W13 RNA. As to conditions: equilibrium dialysis, direct; read-out: KD. The method, then:
One of these RNAs, clone W13 (SEQ ID NO:1) was chosen for quantitative studies to determine the specificity of its binding to RNA. […] The dissociation constant for tobramycin was determined to be 3 μM by competition studies with ^3 H-acetyl tobramycin. These values are close to those measured for tobramycin and ^3 H-acetyl tobramycin binding to ribosomal targets (LeGoffic et al. (1979) Eur. J. Biochem. 102: 73-81).
Equilibrium dialysis measurements were performed according to the procedure of Lorsch et al. (Biochem. (1994) 33: 973-982).
Background: Equilibrium dialysis compares concentrations on both sides of a semipermeable membrane.

Assay [8] deals with RRE region of HIV RNA. Put plainly: Fluorescence binding and competitive binding to RRE RNA. As to conditions: competition, 100 nM RNA, 15 nM fluorescent tobramycin, 20° C., pH 7.4; read-out: Dissociation Constant (KD) RRE RNA. The method, then: In order to quantitatively determine whether fluorescently labelled tobramycin and other antibiotics bind directly to the RRE region and/or to other regions of the HIV RNA, and with what affinity, the RRE and TAR regions of HIV RNA were prepared and used in the method of the invention as target RNAs.
For binding studies, different concentrations of RRE RNA (from 0 to 300 nm) were mixed with a constant concentration (15 nM) PYT in Binding buffer (140 mM NaCl, 1 mM MgCl2, 20 mM HEPES, pH 7.4), 2 ml total volume, for 1-5 min. at 20° C. in a semimicro-cell cuvette. The fluorescence was measured on a Perkin-Elmer Model 512 double beam fluorescence spectrophotometer. The excitation wavelength used was 330 nm. The intensities of fluorescence emission at 390 nm were used to calculate dissociation constants. Generally 8 to 12 points were used for calculation.
In other competitive binding studies, TAR or RRE RNA was added at a constant concentration of 100 nM±5% and PYT at 15 nM. Different concentrations of competitive antibiotic (tobramycin (o-60 μM), gentamicin C (0-100 μM), neomycin B (0-4 μM), or lividomycin A (0-100 μM) or Rev protein (0-6 μM) were mixed with constant concentrations of RNA (100 nM TAR or RRE) and C1PYT (15 nM), in Binding buffer (140 mM NaCl, 5 mM KCl, 1 mM MgCl2, 20 mM HEPES, pH 7.4), 2 ml total volume, for 1-5 min. at 20° C. in a semimicrocell cuvette. The fluorescence was measured on a Perkin-Elmer Model 512 double beam fluorescence spectrophotometer. The excitation wavelength used was 330 nm. The intensities of fluorescence emission at 390 nm were used to calculate dissociation constants. Generally 8 to 12 points were used for calculation.
Wild type and mutant RRE RNAs were transcribed in vitro by T7 RNA polymerase using synthetic oligonucleotide templates, as described by Milligan et al. (Meth. Enzymol. (1989) 180: 51-62).
as §4

Where [9] appears, read: fluorescence, competition with PYT (150 nM PYT, 300 nM W13), 20° C., pH 7.4, N.B. = no measurable binding.

As for `N[C@@H]1[C@@H](O)[C@@H](O[C@@H]2[C@@H](O)[C@H](O[C@H]3O[C@H](CNC(=O)Cc4ccc5ccc6cccc7ccc4c5c67)[C@@H](O)C[C@H]3N)[C@@H](N)C[C@H]2N)O[C@H](CO)[C@H]1O` [6'N4-pyreneacetyl tobramycin, 6'-N-4-pyreneacetyl tobramycin], the Kd in assay [1] is 65.1 ± 7.4 nM.

Turning to `N[C@H]1C(O)O[C@H](CO)[C@@H](O)[C@@H]1O` (stereo partly drawn) [D-glucosamine], the “competition with PYT binding (in words)” value in assay [2] is given as “did not measurably compete with PYT binding”. Moreover, the “KD (μM)” value in assay [2] (setting [9]) was “N.B”. For the same compound, in assay [3], the “elution of bound RNA from tobramycin affinity column (in words)” value is “did not cause any bound RNA to be eluted”.

Consider `N[C@@H]1[C@@H](O)[C@@H](O[C@@H]2[C@@H](O)[C@H](O[C@H]3O[C@H](CNC(=O)CCCc4ccc5ccc6cccc7ccc4c5c67)[C@@H](O)C[C@H]3N)[C@@H](N)C[C@H]2N)O[C@H](CO)[C@H]1O` [PYT, 6'-N-4-pyrenebutyryl tobramycin], for which the Kd is 20 ± 4 nM in assay [2] (fluorescence intensity of PYT as function of RNA concentration, 1:1 complex, 20° C., pH 7.4); 20 ± 7 nM in assay [2] (setting [9]); 52 ± 8 nM in assay [4]; 5.38 ± 0.46 nM in assay [5]; 286 ± 10 nM in assay [6]. In addition, the “times more tightly bound than tobramycin” value in assay [2] (ratio of KD values, PYT vs tobramycin) is “more than 200 times”.

Consider `CC(=O)NCC1OC(OC2C(N)CC(N)C(OC3OC(CO)C(O)C(N)C3O)C2O)C(N)CC1O` (stereo not shown) [^3 H-acetyl tobramycin, 6-N-^3 H-Acetyl Tobramycin], for which the Kd in assay [7] is 1300 nM.

Take `CC[C@H]1OC(=O)[C@H](C)[C@@H](O[C@H]2C[C@@](C)(OC)[C@@H](O)[C@H](C)O2)[C@H](C)[C@@H](O[C@@H]2O[C@H](C)C[C@H](N(C)C)[C@H]2O)[C@](C)(O)C[C@@H](C)C(=O)[C@H](C)[C@@H](O)[C@]1(C)O` [erythromycin]: the “competition with PYT binding (in words)” value in assay [2] was “only weakly inhibited PYT binding”. Besides, in assay [2] (setting [9]), the Kd was found to be 505000 ± 25000 nM.

Take `NC[C@@H]1O[C@H](O[C@H]2[C@@H](O)[C@H](O[C@@H]3[C@@H](O)[C@H](N)C[C@H](N)[C@H]3O[C@H]3O[C@H](CO)[C@@H](O)C[C@H]3N)O[C@@H]2CO)[C@H](N)[C@@H](O)[C@@H]1O[C@H]1O[C@H](CO)[C@@H](O)[C@H](O)[C@@H]1O` [lividomycin-A, lividomycin A]: the Kd in assay [8] came to 11.9 ± 0.33 µM.

Regarding `NC[C@@H]1O[C@H](O[C@H]2[C@@H](O)[C@H](O[C@@H]3[C@@H](O)[C@H](N)C[C@H](N)[C@H]3O[C@H]3O[C@H](CN)[C@@H](O)[C@H](O)[C@H]3N)O[C@@H]2CO)[C@H](N)[C@@H](O)[C@@H]1O` [neomycin B], in assay [2], the “competition with PYT binding (in words)” value is on record as “potent inhibitors of binding”. Also, the Kd in assay [8] stood at 0.419 ± 0.0038 µM.

In the case of gentamicin, the “competition with PYT binding (in words)” value in assay [2] was “potent inhibitors of binding”. The Kd in assay [2] (setting [9]) turned out to be 4700 ± 4000 nM; in assay [8] it was 10.8 ± 0.68 µM.

The values are drawn from patent publication US5593835A, “Methods and kits for RNA binding compounds” (President and Fellows of Harvard College, priority 1995, dated 1997).
